From US20230296491A1, “DEVICE AND METHOD FOR DETERMINING A MECHANICAL PROPERTY OF A PARTICLE” (priority 2020, published 2023)

How the values were obtained:
[1] = system: NIH 3T3 fibroblast cells; assay: Hydrodynamic stretching deformability of chemically treated NIH 3T3 fibroblasts in the microfluidic system; type: cell-based; conditions: flow rate 10 μl/min, 2 wt % PEO; for mean deformability in the first frame: first frame of the recording cycle (before stretching); for deformability (mean, aspect ratio a/b of the deformed cell): last (15th) frame, CB 150 μM for two hours, fixation 4% formaldehyde for 8 mins
Method: On the other hand, an electrical sensing zone is introduced for on-demand single cell imaging. Three electrodes of 20 μm in width, 20 μm intervals are placed before the flow splitting junction, an input voltage of 0.5 V at 5 MHz is applied to the middle electrode and the differential current (Idifferential) is calculated from the two-sided electrodes. The differential configuration can cancel out electrical drifting caused by environmental fluctuation (i.e. flow, temperature, conductivity and pH) and achieve a higher signal-to-noise ratio. As the cell passes through the sensing region, it replaces the conductive medium and causes a change in the electrical current. By that, a pair of opposite peaks is transmitted into an impedance spectroscope. When the peak reaches the trigger level, a trigger signal is generated and fed to the camera. […] Next, for example at a flow rate of 10 μl/min, the camera starts to record 15 frames at a rate of 2,000 frames per second, with an exposure time of 50 μs. The first frame in a recording cycle is used to extract the cell diameter. At this point, the cell remains spherical because it starts to decelerate and is subject to minor stress. In one record cycle, the cell approaches the splitting junction, reaches the channel wall and migrates along the wall for a time span, ensuring the maximum strain is captured at the 15th frame (FIG. 5a). Its aspect ratio evaluates the cell deformability as
where a and b are the length of the long axis and the short axis of the deformed cell, respectively.
(§1) Cytochalasin B (Sigma-Aldrich) treated NIH 3T3 were prepared by incubating cells in 150 μM Cytochalasin B at 37° C. for two hours. After treatment with chemical reagents, cells were washed, centrifuged and resuspended in 2 wt % PEO solution. The viscoelastic solution was prepared by dissolving PEO (Mw=600 kDa, Sigma-Aldrich) powder into DPBS (Thermo Fisher Scientific) with a concentration of 2 wt %.
Samples were continuously introduced into the microfluidic devices using a syringe pump (KD Scientific, Holliston, MA) at a range of flow rates. Simultaneously, the electrical current was received by an impedance spectroscope (HF2IS, Zurich Instruments) and analyzed by a real-time program to send out a trigger signal whenever there was a cell passing through the electrical sensing region. The triggering signal was received by a camera (Photron Inc., San Diego, CA, USA), which started to record 15 frames at a 2,000 frame rate with an exposure time of 50 μs (at a flow rate of 10 μl/min). After the event triggered imaging process was completed, the video was processed offline using a custom-built Python program. […]

[2] = system: NIH 3T3 fibroblast cells; assay: Fluorescence imaging of actin in live NIH 3T3 cell before and after CB treatment; type: cell-based; conditions: NIH 3T3, fluorescence images (actin)
Method: (a) Representative fluorescence images (actin, red) of a live cell before (top) and after CB treatment (bottom).
as §1
To test the sensitivity of our system for cellular mechanical phenotyping, we compared the deformability of normal and Cytochalasin B (CB) treated two hours NIH 3T3 fibroblasts. […] In addition, we measured the deformability at a wide flow rate range of 1-30 μl/min. […] This flow rate was then applied to analyze the deformability difference. Furthermore, fixed cells were measured as control of undeformed cells.

| SMILES | mean deformability in the first frame [1] | deformability (mean, aspect ratio a/b of the deformed cell) [1] | effect on intracellular F-actin (FIG. 8a) [2] |
| --- | --- | --- | --- |
| C=O [formaldehyde] | 1.12±0.06 | 1.29±0.11 | – |
| C=C1[C@@H](C)[C@H]2[C@H](Cc3ccccc3)NC(=O)[C@]23OC(=O)/C=C/[C@H](O)CCC[C@@H](C)C/C=C/[C@H]3[C@@H]1O [CB, Cytochalasin B] | 1.16±0.12 | 1.87±0.23 | intracellular F-actin depolymerization |
